# Results reported in patent US11635379B2, “Portable wide field fluorimeter systems” (priority 2017, dated 2023).
# How the values were obtained:
# [1] = target: T1, S. Aureus (Staphylococcus aureus, UniProt P00807); assay: Antibiotic susceptibility testing by β-LEAF fluorescence in microfluidic device with portable fluorimeter; type: cell-based
# T1 construct: endogenous in cells
# Protocol: In another experiment, fluorometric assay techniques were examined using a microfluidic device (e.g., the microfluidic device 102) and fluorescence images were collected using a portable wide field fluorimeter similar to the system 700 depicted in FIGS. 7A-D. In this experiment, the detection reagent was a 20 μM β-LEAF Bodipy-FL probe solution (2×stock) that was prepared in 40% DMSO in PBS, and an antibiotic solution was a […] penicillin G solution (4×stock) that was prepared by dissolving the antibiotic powder in PBS. Two different types of liquid samples were prepared. A first liquid sample (which included the antibiotic solution) was prepared by combining the 25 μl bacterial suspension, 50 μl of probe 2×stock solution, and 25 μl antibiotic 4×stock solution. […]
# Data acquisition involved collecting a fluorescent reading by the camera every 3 seconds. […] Fluorescence was measured in a machine specific standard unit. […]
# To analyze image data, a region of interest was selected over an area of bacteria capture corresponding to a chamber of the microfluidic device was the liquid samples were collected. Fluorescence data was extracted in a green channel. […]
# The experiment was performed using two liquid samples that were introduced into a microfluidic device and monitored for fluorescence over a 10-minute time period. […]
# [2] = target: T2, β-lactamase producing strain (B-lac(+)) (Staphylococcus aureus, UniProt P00807); type: cell-based; details: B-lac(+) S. aureus, β-LEAF with vs without cefazolin, 60-minute time course, 37° C.
# T2 construct: a known β-lactamase producing strain (B-lac(+)); host or cells: S. aureus ATCC control strain, β-lactamase producing (B-lac(+))
# T2 sequence (P00807 25-281): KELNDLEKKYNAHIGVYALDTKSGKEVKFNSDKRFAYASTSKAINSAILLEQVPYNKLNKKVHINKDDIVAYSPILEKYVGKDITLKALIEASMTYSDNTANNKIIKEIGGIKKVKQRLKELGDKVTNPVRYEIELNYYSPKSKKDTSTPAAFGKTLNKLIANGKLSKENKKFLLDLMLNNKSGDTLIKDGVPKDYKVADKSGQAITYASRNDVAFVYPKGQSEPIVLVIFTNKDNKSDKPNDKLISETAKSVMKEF
# Description: Consequently, the fluorophores are unable to emit fluorescence due to ground state interactions between each other. However, after probe cleavage by β-lactamase, the fluorophores diffuse away from each other, are no longer quenched, and thus regain their fluorescent properties. […] If the assay is repeated in the presence of a cleavable antibiotic that competes with the β-LEAF for β-lactamase cleavage, the rate of β-LEAF cleavage will decrease, resulting in no fluorescence increase.
# To encapsulate the data, the suppression of fluorescence change (ΔFs) is defined as (ΔFBL−ΔFBL+antibiotic)/ΔFBL, where ΔFBL and ΔFBL+antibiotic is the fluorescence rate of change of the β-lactamase only and β-lactamase and antibiotic conditions, respectively. […]
# Time course assays were carried out with each of the two liquid samples by monitoring β-LEAF cleavage by measuring fluorescence for 60 minutes, at 1 minute intervals using a Spectramax® M5 Plate Reader (Molecular Devices). […] Fluorescence was measured in a machine specific standard unit.
# In this example, β-LEAF assays were performed with the two ATCC S. aureus control bacterial strains, a known β-lactamase producing strain (B-lac(+)) and a known β-lactamase non-producing strain (B-lac(−)). […] Four test solutions were prepared and examined for time-course fluorescence intensity changes: […]
# T1 sequence (P00807 25-281): as above
Structure (SMILES),"change of fluorescence intensity over the ten-minute time period ([1]; 50 μl sample, 2.5e6 CFU/ml S. Aureus, fluorescent probe plus Penicillin G)","susceptibility of the antibiotic to cleavage by the bacteria ([1]; S. Aureus, competition with fluorescent probe)",suppression of fluorescence change (ΔFs) [2]
CC1(C)S[C@@H]2[C@H](NC(=O)Cc3ccccc3)C(=O)N2[C@H]1C(=O)O [Penicillin G],did not change significantly,vulnerable to cleaving,
Cc1nnc(SCC2=C(C(=O)O)N3C(=O)[C@@H](NC(=O)Cn4cnnn4)[C@H]3SC2)s1 [cefazolin],,,~1
